Data from ChEMBL document CHEMBL3997767, “Magnetic Microbead Affinity Selection Screening (MagMASS) of Botanical Extracts for Inhibitors of 15-Lipoxygenase” (J Nat Prod, 2016).
Active and inactive are the calls of the source. The calls are words filed in the database; no cut-off is given here.

Columns and labels:
Glycine max [1] = assay: Binding affinity to soybean p1 15-LOX at 100 pmol after 1 hr by magnetic microbead affinity selection screening method
[2] = molecular target: T1, Polyunsaturated fatty acid lipoxygenase ALOX15 (Homo sapiens, UniProt P16050); assay: Inhibition of 15-LOX (unknown origin)
T1 sequence (P16050 whole entry): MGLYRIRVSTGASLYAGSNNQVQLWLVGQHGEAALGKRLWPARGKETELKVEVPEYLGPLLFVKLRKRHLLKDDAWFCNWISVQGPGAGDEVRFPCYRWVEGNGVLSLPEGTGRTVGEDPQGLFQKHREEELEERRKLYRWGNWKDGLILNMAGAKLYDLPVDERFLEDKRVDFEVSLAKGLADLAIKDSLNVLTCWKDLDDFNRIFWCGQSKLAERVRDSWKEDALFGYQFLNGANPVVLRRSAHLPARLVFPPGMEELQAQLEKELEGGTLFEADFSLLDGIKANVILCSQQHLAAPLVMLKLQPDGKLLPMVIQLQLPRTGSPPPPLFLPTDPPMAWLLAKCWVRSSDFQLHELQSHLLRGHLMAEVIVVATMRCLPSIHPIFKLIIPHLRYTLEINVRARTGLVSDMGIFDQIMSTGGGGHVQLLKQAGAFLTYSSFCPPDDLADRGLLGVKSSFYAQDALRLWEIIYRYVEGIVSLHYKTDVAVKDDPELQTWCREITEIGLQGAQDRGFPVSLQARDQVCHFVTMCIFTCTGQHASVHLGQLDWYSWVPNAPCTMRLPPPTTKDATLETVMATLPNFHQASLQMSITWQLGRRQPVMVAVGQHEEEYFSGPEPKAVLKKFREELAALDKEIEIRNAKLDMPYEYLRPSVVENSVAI

Glycine max [3] = assay: Binding affinity to soybean p1 15-LOX at 10 ug after 1 hr by magnetic microbead affinity selection screening method
[4] = Inhibition of 15-LOX in soybean using linoleic acid as substrate measured for 30 to 90 secs; set-up: species or system Glycine max

SMILES | Activity (Glycine max [1]) | IC50 [2] [µM] | Activity (Glycine max [3]) | IC50 [4] [µM]
O=c1c2ccccc2[se]n1-c1ccccc1 | inactive | – | – | –
O=c1cc(-c2ccc(O)c(O)c2)oc2cc(O)cc(O)c12 [LUTEOLIN] | Active | 5 | – | –
C[C@@H]1O[C@@H](Oc2c(-c3ccc(O)c(O)c3)oc3cc(O)cc(O)c3c2=O)[C@H](O)[C@H](O)[C@H]1O [QUERCITRIN] | – | – | Active | 79.8
